Results on 15 compounds are retold here after patent publication EP4813463A2, “TYK2 INHIBITORS AND COMPOSITIONS AND METHODS THEREOF” (Lynk Pharmaceuticals Co. Ltd., priority 2023, dated 2024).

One assay addresses T1, TYK2-JH2 domain (Homo sapiens, UniProt P29597).
T1 construct: JAK1-JH2 domain or TYK2-JH2 domain enzyme in assay buffer
Briefly: Binding activity test for JH2 domain of TYK2 (Tb-antibody/tracer FRET). Conditions: for IC50: JH2 domain enzyme, 60 min at 25°C, then 4°C overnight, read-out: TYK2 JH2 Binding IC50; for JAK1/TYK2 selectivity: ratio of JAK1 JH2 to TYK2 JH2 binding IC50. An outline of the steps: (§1)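 Competitive TR-FRET binding: compounds dispensed as an 11-point 3-fold dilution series, then Tb-labelled antibody and tracer added to the JH2 protein system. Incubated at 25°C, then overnight at 4°C; FRET signal read on Envision and IC50 (nM) derived.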

For a further assay, the target named is T2, JAK1-JH2 domain (Homo sapiens, UniProt P23458).
T2 construct: JAK1-JH2 domain or TYK2-JH2 domain enzyme in assay buffer
T2 sequence (P23458 583-855 limits assumed): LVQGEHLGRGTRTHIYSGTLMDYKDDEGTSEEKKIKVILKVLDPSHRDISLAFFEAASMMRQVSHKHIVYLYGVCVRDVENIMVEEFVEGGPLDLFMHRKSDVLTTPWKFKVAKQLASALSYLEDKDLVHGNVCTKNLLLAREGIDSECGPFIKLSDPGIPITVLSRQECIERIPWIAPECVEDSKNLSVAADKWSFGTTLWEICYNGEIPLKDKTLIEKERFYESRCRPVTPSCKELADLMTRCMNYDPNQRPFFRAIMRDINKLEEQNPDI
Briefly: Binding activity test for JH2 domain of JAK1 (Tb-antibody/tracer FRET). Conditions: JH2 domain enzyme; 60 min at 25°C, then 4°C overnight; read-out: JAK1 JH2 Binding IC50. An outline of the steps: as §1

The test system of assay [1] is Ba/F3-FL-TYK2-P760L cells. Briefly: Anti-proliferative assay in engineered Ba/F3 cells (Cell-Titer Glo, 72 h). Format: cell-based. Conditions: Mus musculus, BaF3, 72 h, 72 h compound treatment, concentration that causes 50% growth inhibition, read-out: Baf3-FL-T2P760L. An outline of the steps: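 Ba/F3 cells carrying Tel-dimerization/JAK kinase fusion, IL-3-independent, in RPMI-1640 + 10% FBS; 9-point 3-fold dilutions from 20 µM (0.1% DMSO) added after 24 h, 72 h at 37 °C. Viability by Cell-Titer Glo ATP luminescence; % inhibition versus DMSO cells, blank-corrected, giving IC50.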

The structures appear in SMILES notation.

T1 sequence (P29597 589-875 limits assumed): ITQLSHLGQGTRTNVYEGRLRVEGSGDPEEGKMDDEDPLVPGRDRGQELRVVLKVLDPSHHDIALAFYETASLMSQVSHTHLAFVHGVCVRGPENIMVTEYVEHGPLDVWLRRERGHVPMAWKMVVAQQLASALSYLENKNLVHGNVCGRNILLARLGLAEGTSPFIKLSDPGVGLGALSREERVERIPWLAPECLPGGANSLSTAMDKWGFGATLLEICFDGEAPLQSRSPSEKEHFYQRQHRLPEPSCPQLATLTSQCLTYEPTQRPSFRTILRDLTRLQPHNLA

Turning to `[2H]C([2H])([2H])OCc1ccc2c(c(Nc3cc(NC(=O)C4CC4)ncc3C(F)(F)CC)nn2C)c1OC` [Example 172, N-(5-(1,1-difluoropropyl)-4-((4-methoxy-5-((methoxy-d3)methyl)-1-methyl-1H-indazol-3-yl)amino)pyridin-2-yl)cyclopropanecarboxamide], the figures for the IC50 (at TYK2-JH2 domain; at JAK1-JH2 domain; in assay [1]) were 0.79 nM, 18.2 nM and 21.9 nM, respectively. In addition, the JAK1/TYK2 selectivity on TYK2-JH2 domain amounted to 22.99.
Take `[2H]C([2H])([2H])NC(=O)c1cnc(Nc2ccc(N3CCOCC3)cn2)cc1Nc1nn(C)c2ccc([C@H](OC)C(F)(F)F)c(OC)c12` [Example 173, (S)-4-((4-methoxy-1-methyl-5-(2,2,2-trifluoro-1-methoxyethyl)-1H-indazol-3-yl)amino)-N-(methyl-d3)-6-((5-morpholinopyridin-2-yl)amino)nicotinamide]: the values for the IC50 (at TYK2-JH2 domain; on JAK1-JH2 domain; in assay [1]) were 0.161 nM, 2.39 nM and 0.401 nM, respectively. In addition, the JAK1/TYK2 selectivity on TYK2-JH2 domain amounted to 14.83.
As for `CCC(F)(F)c1cnc(NC(=O)C2CC2)cc1Nc1nccc(-c2cnn(C)n2)c1OC` [Example 174, N-(5-(1,1-difluoropropyl)-4-((3-methoxy-4-(2-methyl-2H-1,2,3-triazol-4-yl)pyridin-2-yl)amino)pyridin-2-yl)cyclopropanecarboxamide], the figures for the IC50 (at TYK2-JH2 domain; at JAK1-JH2 domain; in assay [1]) were 0.86 nM, 61.4 nM and 15.4 nM, respectively. On TYK2-JH2 domain, the JAK1/TYK2 selectivity turned out to be 71.45.
For `COC(=O)c1cnc(Nc2ccc(Cl)cn2)cc1Nc1nn(C)c2ccc([C@H](OC)C(F)(F)F)c(OC)c12` [Example 175, Methyl (S)-6-((5-chloropyridin-2-yl)amino)-4-((4-methoxy-1-methyl-5-(2,2,2-trifluoro-1-methoxyethyl)-1H-indazol-3-yl)amino)nicotinate], in that order: 0.384 nM, greater than 298 nM, 18.1 nM and greater than 777.34.
In the case of `COC1CN(c2ccc3nc(Nc4cc(NC(=O)C5CC5)ncc4C(C)(F)F)nn3c2)C1` [Example 176, N-(5-(1,1-difluoroethyl)-4-((6-(3-methoxyazetidin-1-yl)-[1,2,4]triazolo[1,5-a]pyridin-2-yl)amino)pyridin-2-yl)cyclopropanecarboxamide], the IC50 on TYK2-JH2 domain came to 0.768 nM; at JAK1-JH2 domain, 17.1 nM; in assay [1] it was 13.3 nM. The JAK1/TYK2 selectivity at TYK2-JH2 domain came out at 22.21.
`COc1c(-c2cnn(C)n2)ccnc1Nc1cc(NC(=O)C2CC2)ncc1C(C)(F)F` [Example 177, N-(5-(1,1-Difluoroethyl)-4-((3-methoxy-4-(2-methyl-2H-1,2,3-triazol-4-yl)pyridin-2-yl)amino)pyridin-2-yl)cyclopropanecarboxamide]: the IC50 on TYK2-JH2 domain came to 0.749 nM; on JAK1-JH2 domain it was 6.37 nM; in assay [1] it was 15.2 nM. Also, the JAK1/TYK2 selectivity at TYK2-JH2 domain stood at 8.50.
For `COC(=O)c1cnc(Nc2ccn(C)n2)cc1Nc1nn(C)c2ccc([C@H](OC)C(F)(F)F)c(OC)c12` [Example 180, Methyl (S)-4-((4-methoxy-1-methyl-5-(2,2,2-trifluoro-1-methoxyethyl)-1H-indazol-3-yl)amino)-6-((1-methyl-1H-pyrazol-3-yl)amino)nicotinate], in that order: 0.176 nM, greater than 298 nM, 14.3 nM and greater than 1696.
Turning to `COCCn1ccc(Nc2cc(Nc3nn(C)c4ccc([C@H](OC)C(F)(F)F)c(OC)c34)c(C(=O)OC)cn2)n1` [Example 181, Methyl (S)-4-((4-methoxy-1-methyl-5-(2,2,2-trifluoro-1-methoxyethyl)-1H-indazol-3-yl)amino)-6-((1-(2-methoxyethyl)-1H-pyrazol-3-yl)amino)nicotinate], the IC50 is 0.309 nM on TYK2-JH2 domain, greater than 298 nM on JAK1-JH2 domain and 35.2 nM in assay [1]. Besides, the JAK1/TYK2 selectivity on TYK2-JH2 domain was greater than 966.
Take `[2H]C([2H])([2H])NC(=O)c1cnc(Nc2cc(CN3CCOCC3)n(C)n2)cc1Nc1nn(C)c2ccc([C@H](OC)C(F)(F)F)c(OC)c12` [Example 182, (S)-4-((4-Methoxy-1-methyl-5-(2,2,2-trifluoro-1-methoxyethyl)-1H-indazol-3-yl)amino)-N-(methyl-d3)-6-((1-methyl-5-(morpholinomethyl)-1H-pyrazol-3-yl)amino)nicotinamide]: the IC50 on TYK2-JH2 domain was determined as 0.141 nM; on JAK1-JH2 domain, 1.97 nM; in assay [1] it was 0.817 nM. Moreover, the JAK1/TYK2 selectivity at TYK2-JH2 domain came out at 13.95.
For `CCC(F)(F)c1cnc(NC(=O)C2CC2)cc1Nc1cccc(-c2cnn(C)n2)c1OC` [Example 184, N-(5-(1,1-Difluoropropyl)-4-((2-methoxy-3-(2-methyl-2H-1,2,3-triazol-4-yl)phenyl)amino)pyridin-2-yl)cyclopropanecarboxamide], in that order: 0.216 nM, 6.85 nM, 14.9 nM and 31.71.
On to `CNC(=O)c1nnc(NC(=O)C2CC2)cc1Nc1nc2ccccn2n1` [Example 185, 4-([1,2,4]Triazolo[1,5-a]pyridin-2-ylamino)-6-(cyclopropanecarboxamido)-N-methylpyridazine-3-carboxamide], for which the IC50 at TYK2-JH2 domain came to 0.565 nM; on JAK1-JH2 domain it was 9.21 nM; in assay [1] it was 89.1 nM. The JAK1/TYK2 selectivity at TYK2-JH2 domain was found to be 16.30.
Turning to `CNC(=O)c1cnc(NC(=O)C2CC2)cc1Nc1nn(C)c2ccc([C@H](O)C(F)(F)F)c(OC)c12` [Example 189, (S)-6-(Cyclopropanecarboxamido)-4-((4-methoxy-1-methyl-5-(2,2,2-trifluoro-1-hydroxyethyl)-1H-indazol-3-yl)amino)-N-methylnicotinamide], the IC50 at TYK2-JH2 domain was found to be 0.054 nM; at JAK1-JH2 domain it was 3.5 nM; in assay [1] it was 0.119 nM. The JAK1/TYK2 selectivity at TYK2-JH2 domain stood at 64.91.
For `CNC(=O)c1cnc(NC(=O)C2CC2)cc1Nc1nn(C)c2ccc([C@H](OC)C(F)(F)F)c(OC)c12` [Example 190, (S)-6-(Cyclopropanecarboxamido)-4-((4-methoxy-1-methyl-5-(2,2,2-trifluoro-1-methoxyethyl)-1H-indazol-3-yl)amino)-N-methylnicotinamide], in that order: 0.076 nM, 1.95 nM, 0.196 nM and 25.71.
For `[2H]C([2H])([2H])NC(=O)c1cnc(NC(=O)C2CC2)cc1Nc1nn(C)c2ccc(C(C)C(F)(F)F)c(OC)c12` (stereo not drawn) [Example 191, 6-(Cyclopropanecarboxamido)-4-((4-methoxy-1-methyl-5-(1,1,1-trifluoropropan-2-yl)-1H-indazol-3-yl)amino)-N-(methyl-d3)nicotinamide], in that order: 0.132 nM, 5.96 nM, 2.51 nM and 45.15.
With `[2H]C([2H])([2H])NC(=O)c1cnc(NC(=O)[C@@H]2C[C@@H]2F)cc1Nc1nn(C)c2ccc([C@H](O)C(F)(F)F)c(OC)c12` [Example 194, 6-((1S,2S)-2-Fluorocyclopropane-1-carboxamido)-4-((4-methoxy-1-methyl-5-((S)-2,2,2-trifluoro-1-hydroxyethyl)-1H-indazol-3-yl)amino)-N-(methyl-d3)nicotinamide], the IC50 was 0.08 nM at TYK2-JH2 domain, 3.9 nM on JAK1-JH2 domain and 0.241 nM in assay [1]. Also, on TYK2-JH2 domain, the JAK1/TYK2 selectivity is on record as 48.8.
